Data: a melting point compilation (Tetko et al.)

Row | SMILES | melting point [°C]
1 | Cc1ccc(N(C)C(C)C)c(C(=O)O)c1 | 69 to 71
2 | CC(C)(C)c1nccc(N)n1 | 64 to 66
3 | Oc1ccnc2cc(Br)ccc12 | 286 to 288
4 | CC(Sc1ccc([N+](=O)[O-])cc1)C(=O)O (centres undefined) | 114 to 116
5 | CC(C)(C)n1ncc(C#N)c1N | 90 to 92
6 | O=C(O)c1cnn(-c2ncccc2Cl)c1C(F)F | 178 to 180
7 | Cc1nc(O)nc(C)c1CC(=O)O | 271 to 273
8 | NS(=O)(=O)c1ccc2c(c1)oc(=O)n2CC(=O)O | 168 to 170
9 | Cc1ccccc1C(N)=NO | 81 to 83
10 | O=[N+]([O-])c1cncc(Br)c1 | 99 to 101
11 | CC(=O)NCc1ccc(-c2csc(N)n2)s1 | 221 to 223
12 | Nc1nonc1-c1ccc(Cl)cc1Cl | 105 to 107
13 | CC1(C)SC(=O)NC1=O | 77 to 79
14 | COc1cc(C=O)c(Br)cc1O | 175 to 177
15 | O=C(O)c1ccccc1OCc1ccc(F)cc1 | 80 to 84
16 | COc1ccc(NC(=O)NN)cc1 | 146 to 148
17 | CSc1cc(C(=O)O)oc1C | 144 to 146
18 | O=[N+]([O-])c1ccc(Br)c(S(=O)(=O)Cl)c1 | 86 to 88
19 | Cc1c(C(=O)O)sc2[nH]cnc(=S)c12 | 309 to 311
20 | N#Cc1ccc2c(c1)C=CS2(=O)=O | 149 to 151
21 | N#Cc1ccc(Cn2cnc(N)n2)cc1 | 169 to 171
22 | Oc1nnnn1-c1ccc(Cl)cc1 | 141 to 143
23 | O=C(O)/C=C/S(=O)(=O)c1ccccc1 | 190 to 192

Row | SMILES | melting point [°C]
24 | NS(=O)(=O)c1cc([N+](=O)[O-])c(Br)s1 | 145 to 147
25 | CC(=O)OC(OC(C)=O)c1ccc(S(=O)(=O)Cl)cc1 | 109 to 111
26 | COc1cc([N+](=O)[O-])ccc1I | 127 to 129
27 | O=C(O)c1cccnc1Oc1ccc(F)cc1Br | 189 to 191
28 | Cc1nc2ccccc2c(=O)n1-c1ccc(F)cc1 | 134 to 136
29 | Nc1cc(Cl)cc(C(=O)O)c1F | 196 to 198
30 | CC1CSc2ccccc2NC1=O (centres undefined) | 178 to 180
31 | O=C(O)Cn1ncc2ccc([N+](=O)[O-])cc21 | 219 to 221
32 | CN(C)c1ccc(C#N)cc1F | 34 to 36
33 | COc1ccc(S(=O)(=O)Nc2ncc(Br)s2)cc1 | 132 to 134
34 | COc1ccc(-n2cc(O)c(C(=O)O)n2)cc1 | 234 to 236
35 | Cc1cc(C(=O)O)c(C)n1-c1ccccc1Br | 164 to 166
36 | Cc1nn(C)c2c1NC(=O)CS2 | 197 to 199
37 | O=C(O)C=Cc1ccc(S(=O)(=O)N2CCc3ccccc32)cc1 | 199 to 201
38 | CC(SCc1ncc(-c2ccc(Cl)cc2)o1)C(=O)O (centres undefined) | 129 to 131
39 | COc1ccc2[nH]c(C(=O)O)cc2c1OC | 221 to 223
40 | C=CCNS(=O)(=O)c1cc(C(=O)O)ccc1F | 164 to 166
41 | CC(C)(C)C(=O)Nc1nccnc1C(=O)O | 96 to 98
42 | O=C(O)C=Cc1ccc(-n2cc(Br)cn2)c(F)c1 | 204 to 206
43 | CC(C)(C)c1ccc(S(N)(=O)=O)s1 | 80 to 82
44 | COC(=O)COc1ccc([N+](=O)[O-])c2ccccc12 | 141 to 143
45 | CN(C)S(=O)(=O)c1cn(C)cn1 | 119 to 121
46 | Cc1cc2c(Cl)nccc2o1 | 38 to 40

Row | SMILES | melting point [°C]
47 | O=C(Nc1ccc(F)cc1)Nc1cccc(O)c1 | 214 to 216
48 | Nc1ccc2[nH]nc(N)c2c1 | 157 to 159
49 | O=C(O)Cc1coc(-c2ccc(F)c(F)c2)n1 | 144 to 146
50 | N#Cc1cn(-c2ccccc2[N+](=O)[O-])nc1N | 188 to 190
51 | Clc1cc[nH]n1 | 68 to 70
52 | Clc1cncc(OCc2ccccc2)n1 | 47 to 49
53 | Cc1cc(C=O)c(C)n1-c1ccc2c(c1)CCC2 | 71 to 75
54 | Cc1nn(-c2ccccc2)c(Oc2ccccc2)c1C=O | 92 to 94
55 | Nc1ccc(S(=O)(=O)Nc2nncs2)cc1 | 211 to 213
56 | O=C1CCc2cc(S(=O)(=O)Cl)ccc2N1 | 205 to 207
57 | Brc1cccc(-c2nnco2)c1 | 74 to 76
58 | CN(C)c1nccc(C=O)n1 | 50 to 52
59 | O=c1[nH]nc2cnccn12 | 229 to 231
60 | COc1ccc([N+](=O)[O-])cc1S(=O)(=O)Cl | 85 to 87
61 | COc1cccnc1N | 76 to 78
62 | Cc1nc(Cl)c2cc[nH]c2n1 | 199 to 201
63 | Nc1oc2ccc(F)cc2c(=O)c1C=O | 251 to 253
64 | CC(=O)SC(C(=O)O)c1ccccc1 (centres undefined) | 79 to 81
65 | NNc1nc(-c2ccccc2)no1 | 177 to 179
66 | COc1cc2c(c(OC)c1OC)CCNC(=O)C2 | 176 to 178
67 | Cc1cc(C)cc(Oc2ccc(N)cc2)c1 | 55 to 57

Results, then the compound that gave them:

Row | melting point [°C] | SMILES
68 | 54 to 56 | Oc1ccc(OCC2CC2)cc1
69 | 104 to 108 | CCOc1ccccc1N1CC(C(=O)O)CC1=O (centres undefined)
70 | 127 to 129 | O=C1CCN(S(=O)(=O)c2cccs2)CC1
71 | 269 to 271 | Oc1[nH]nc2c1CC(c1ccccc1)CC2 (centres undefined)
72 | 109 to 111 | CN1CCN(S(N)(=O)=O)C(c2ccccc2)C1 (centres undefined)
73 | 83 to 85 | O=C1CNCCN1Cc1ccc(Cl)cc1
74 | 152 to 154 | NC(=NO)C12CC3CC(CC(C3)C1)C2
75 | 179 to 181 | Cn1cc(C(=O)NN)cn1
76 | 140 to 142 | CC(NS(=O)(=O)Cc1ccc(CN)cc1)C(N)=O (centres undefined)
77 | 67 to 69 | CC(C)c1ccc(C2CC2C(=O)O)cc1 (centres undefined)
78 | 223 to 225 | CCC1=C(C(=O)O)Cc2ccccc2O1
79 | 112 to 114 | O=C(CCl)Nc1ccc2c(c1)CCC2
80 | 52 to 54 | C1CC(C2CCOCC2)CCN1
81 | 100 to 102 | COc1ccc(OC)c(N2CC(C(=O)O)CC2=O)c1 (centres undefined)
82 | 104 to 106 | CNC(=O)CC(=O)O
83 | 133 to 135 | O=C1NC(=O)C(CCS)N1 (centres undefined)
84 | 95 to 97 | CN1CCN(C(=O)C2CCN(C(=O)OC(C)(C)C)CC2)CC1
85 | 113 to 115 | CC(C)c1ccc(OCCC(=O)O)cc1
86 | 46 to 48 | CCOC(=O)c1cccnc1NC

Row | melting point [°C] | SMILES
87 | 87 to 89 | O=C(O)CC1CCS(=O)(=O)C1 (centres undefined)
88 | 116 to 118 | O=C(Cn1cccn1)NC1CCCCC1
89 | 55 to 57 | NCc1nnc2n1CC(C(F)(F)F)CC2 (centres undefined)
90 | 82 to 84 | CCc1ccc2c(CC(=O)O)coc2c1
91 | 172 to 174 | Cc1cc(O)cc(=O)n1CCC(=O)O
92 | 144 to 146 | CC1CC(=O)NC(=O)C1
93 | 73 to 75 | Nc1ccc(OCCO)cc1C(F)(F)F
94 | 250 to 252 | NC(=O)c1ccc(-c2csc(N)n2)cc1
95 | 115 to 117 | O=C(Nc1ccc(F)cc1)C1CCc2ccccc2N1 (centres undefined)
96 | 64 to 66 | O=C1NC2CCCCCCC12 (centres undefined)
97 | 70 to 72 | CC(C)(C)OC(=O)CNc1ccc2c(c1)OCO2
98 | 194 to 196 | NC(=O)Cc1ccc(Br)cc1
99 | 124 to 126 | NC(=O)COc1ccc(N)cc1
100 | 125 to 127 | COc1cc(C2(C(=O)O)CCC2)ccc1C
101 | 224 to 226 | N#Cc1c(S)nc(CCc2ccccc2)c2c1CCCC2
102 | 218 to 220 | O=C(O)c1ccnc(C2CC2)n1
103 | 86 to 88 | CC(C)=CCOc1cccc(C(=O)O)c1
104 | 116 to 118 | NC(=O)CCC1CCCCC1
